Among the data in ChEMBL document CHEMBL1201862, “PubChem BioAssay data set” (2004) are IC50, EC50 and AC50 values, retold here.

Assay [1] in a line: cells. The class given is functional, cell-based.
Assay [2] can be described thus: cells. The class given is functional, cell-based. The source holds these as a separate data set.
For assay [3], the target named is T1, Caspase-6 (Homo sapiens, UniProt P55212).
T1 sequence (P55212 whole entry): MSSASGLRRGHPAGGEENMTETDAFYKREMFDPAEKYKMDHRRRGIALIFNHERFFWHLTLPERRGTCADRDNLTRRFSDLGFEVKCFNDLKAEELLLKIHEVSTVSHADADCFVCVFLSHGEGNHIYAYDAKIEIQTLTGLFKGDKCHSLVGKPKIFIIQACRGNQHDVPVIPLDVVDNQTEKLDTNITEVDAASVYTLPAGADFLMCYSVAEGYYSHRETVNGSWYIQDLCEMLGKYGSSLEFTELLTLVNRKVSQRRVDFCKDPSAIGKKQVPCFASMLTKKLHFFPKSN
Description: inhibition of CASP6 peptide cleavage – biochemical, VEID-R110 fluorescence, cherry-pick, dose response (AID 720632).

Assay [4] has as its target Genome polyprotein (dengue virus type 2, UniProt P29990). The assay is described as follows: flavivirus cap methylation enzyme inhibition – biochemical, confirmation dose response, primary screen (AID 588689). The class given is functional.
For assay [5], the target named is T2, Mannose-6-phosphate isomerase (Homo sapiens, UniProt P34949).
T2 sequence (P34949 whole entry): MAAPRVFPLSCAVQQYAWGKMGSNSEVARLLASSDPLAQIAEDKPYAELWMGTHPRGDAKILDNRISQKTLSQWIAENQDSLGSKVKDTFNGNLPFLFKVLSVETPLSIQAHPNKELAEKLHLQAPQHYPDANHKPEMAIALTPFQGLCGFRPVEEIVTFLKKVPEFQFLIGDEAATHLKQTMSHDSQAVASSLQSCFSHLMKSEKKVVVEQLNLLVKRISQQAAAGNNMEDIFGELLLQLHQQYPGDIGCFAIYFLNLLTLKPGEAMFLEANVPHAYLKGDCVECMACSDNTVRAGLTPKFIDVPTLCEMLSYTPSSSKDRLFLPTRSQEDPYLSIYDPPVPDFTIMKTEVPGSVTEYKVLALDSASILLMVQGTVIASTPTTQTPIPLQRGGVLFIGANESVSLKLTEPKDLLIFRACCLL
Description: MPI inhibition at elevated mannose 6-phosphate – biochemical, fluorescence intensity, high mannose 6-phosphate, primary screen (AID 1220).

Assay [6] is described as follows: cells. The class given is functional, cell-based. The source holds these as a separate data set.
Assay [7] can be described thus: cells. The class given is functional, cell-based. The source holds these as a separate data set.
In assay [8] the target is T3, Apoptotic protease-activating factor 1 (Homo sapiens, UniProt O14727).
T3 sequence (O14727 whole entry): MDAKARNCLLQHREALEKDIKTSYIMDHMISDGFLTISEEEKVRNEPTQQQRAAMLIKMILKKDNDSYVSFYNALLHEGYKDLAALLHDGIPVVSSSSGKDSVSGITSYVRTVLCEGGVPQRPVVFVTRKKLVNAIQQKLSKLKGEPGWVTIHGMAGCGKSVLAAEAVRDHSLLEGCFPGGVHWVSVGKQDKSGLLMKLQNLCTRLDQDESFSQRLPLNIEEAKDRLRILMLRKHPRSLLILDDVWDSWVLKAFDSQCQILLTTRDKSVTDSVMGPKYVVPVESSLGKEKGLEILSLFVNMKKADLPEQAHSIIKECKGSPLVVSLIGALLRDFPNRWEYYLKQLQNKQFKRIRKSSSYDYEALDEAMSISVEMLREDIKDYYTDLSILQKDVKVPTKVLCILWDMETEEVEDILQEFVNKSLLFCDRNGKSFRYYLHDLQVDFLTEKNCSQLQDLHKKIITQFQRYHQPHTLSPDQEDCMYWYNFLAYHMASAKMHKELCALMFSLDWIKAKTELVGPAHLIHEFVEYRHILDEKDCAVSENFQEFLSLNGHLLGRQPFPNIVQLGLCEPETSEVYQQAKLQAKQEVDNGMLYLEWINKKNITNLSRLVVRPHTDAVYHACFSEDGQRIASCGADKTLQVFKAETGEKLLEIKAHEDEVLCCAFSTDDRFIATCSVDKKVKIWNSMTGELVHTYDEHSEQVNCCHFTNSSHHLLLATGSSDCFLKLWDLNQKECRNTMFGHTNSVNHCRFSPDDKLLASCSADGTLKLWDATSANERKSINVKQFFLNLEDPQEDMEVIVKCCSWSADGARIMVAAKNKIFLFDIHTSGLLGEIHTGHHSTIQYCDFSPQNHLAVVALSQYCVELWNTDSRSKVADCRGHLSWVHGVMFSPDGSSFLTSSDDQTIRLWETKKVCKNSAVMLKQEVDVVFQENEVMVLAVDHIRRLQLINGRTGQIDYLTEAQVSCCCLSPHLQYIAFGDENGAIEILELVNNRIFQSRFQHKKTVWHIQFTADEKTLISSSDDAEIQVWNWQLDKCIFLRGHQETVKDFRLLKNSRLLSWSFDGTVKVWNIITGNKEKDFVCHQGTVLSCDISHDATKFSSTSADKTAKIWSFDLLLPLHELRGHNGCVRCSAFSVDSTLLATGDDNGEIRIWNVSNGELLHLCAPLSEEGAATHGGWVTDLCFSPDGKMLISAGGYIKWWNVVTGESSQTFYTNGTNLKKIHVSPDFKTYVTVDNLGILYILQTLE
The class given is functional.

The target in assay [9] is T4, RNA-binding protein pos-1 (Caenorhabditis elegans, UniProt G5EF15).
T4 sequence (G5EF15 whole entry): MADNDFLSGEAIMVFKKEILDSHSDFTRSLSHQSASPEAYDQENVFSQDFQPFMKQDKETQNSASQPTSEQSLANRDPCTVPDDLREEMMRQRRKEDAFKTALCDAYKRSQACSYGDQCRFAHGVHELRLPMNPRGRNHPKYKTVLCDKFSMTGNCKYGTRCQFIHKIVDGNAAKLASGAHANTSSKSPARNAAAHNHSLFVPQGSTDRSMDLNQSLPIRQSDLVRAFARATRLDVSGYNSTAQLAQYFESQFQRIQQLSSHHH
The assay is described as follows: disruptors of C. elegans POS-1 RNA interaction – biochemical, fluorescence polarization, dose response (AID 1964).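 Also: purified POS-1 fused to maltose binding protein made in E. coli; potency of compounds blocking POS-1 binding to fluorescent RNA.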 A general note: Fluorescence polarisation rises when a labelled molecule tumbles more slowly, as on binding a larger partner.

The target in assay [10] is T5, Zinc finger protein mex-5 (Caenorhabditis elegans, UniProt Q9XUB2).
T5 sequence (Q9XUB2 whole entry): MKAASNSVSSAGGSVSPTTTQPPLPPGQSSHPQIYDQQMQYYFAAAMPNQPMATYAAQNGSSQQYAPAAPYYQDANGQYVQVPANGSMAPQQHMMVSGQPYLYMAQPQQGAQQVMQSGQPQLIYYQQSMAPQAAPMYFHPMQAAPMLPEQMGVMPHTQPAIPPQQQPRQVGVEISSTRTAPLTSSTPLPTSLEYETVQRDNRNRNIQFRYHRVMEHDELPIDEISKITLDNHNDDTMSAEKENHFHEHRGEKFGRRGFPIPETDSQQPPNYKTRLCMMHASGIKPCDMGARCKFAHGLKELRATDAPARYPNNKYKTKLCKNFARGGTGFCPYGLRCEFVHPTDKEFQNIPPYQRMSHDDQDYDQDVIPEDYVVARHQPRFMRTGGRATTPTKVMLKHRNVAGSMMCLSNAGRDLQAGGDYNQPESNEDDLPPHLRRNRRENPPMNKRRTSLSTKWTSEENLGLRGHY
The assay is described as follows: potency of MEX-5 RNA-binding blockers – biochemical, C. elegans, fluorescence polarization, dose response (AID 1960).

Assay [11] addresses Peroxisome proliferator-activated receptor gamma/Nuclear receptor coactivator 1 (Homo sapiens, UniProt P37231). The assay is described as follows: TR-FRET dose response biochemical High Throughput Screening assay for agonists of the steroid receptor coactivator 1 (SRC-1) recruitment by the peroxisome proliferator-activated receptor gamma (PPAR gamma): non-selective agonists. [Related pubchem assays (depositor defined):AID1300, AID1808, AID504735, AID631]. The format is protein assay. (TR-FRET usually uses a lanthanide donor and a delayed reading to cut background.)

Assay [12] has as its target Peroxisome proliferator-activated receptor gamma/Nuclear receptor coactivator 3 (Homo sapiens, UniProt P37231). The assay is described as follows: TR-FRET dose response biochemical High Throughput Screening assay for agonists of the steroid receptor coactivator 3 (SRC-3) recruitment by the peroxisome proliferator-activated receptor gamma (PPAR gamma): non-selective agonists. [Related pubchem assays: 1301 (Confirmation screen.), 1048 (Primary screen.)]. The format is functional.

The target in assay [13] is Peroxisome proliferator-activated receptor gamma/Nuclear receptor coactivator 2 (Homo sapiens, UniProt P37231). Description: TR-FRET dose response biochemical High Throughput Screening assay for agonists of the steroid receptor coactivator 2 (SRC-2) recruitment by the peroxisome proliferator-activated receptor gamma (PPAR gamma): non-selective agonists. [Related pubchem assays: 1297, 1032 ]. The format is functional.

Assay [14] has as its target Large T antigen (Simian virus 40, UniProt P03070). The class given is functional, Betapolyomavirus macacae.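 Also: Confirmatory-stage PubChem screen for compounds that inhibit SV40 T antigen.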
The target of assay [15] is T6, Carboxy-terminal domain RNA polymerase II polypeptide A small phosphatase 1 (Homo sapiens, UniProt Q9GZU7).
T6 sequence (Q9GZU7 whole entry): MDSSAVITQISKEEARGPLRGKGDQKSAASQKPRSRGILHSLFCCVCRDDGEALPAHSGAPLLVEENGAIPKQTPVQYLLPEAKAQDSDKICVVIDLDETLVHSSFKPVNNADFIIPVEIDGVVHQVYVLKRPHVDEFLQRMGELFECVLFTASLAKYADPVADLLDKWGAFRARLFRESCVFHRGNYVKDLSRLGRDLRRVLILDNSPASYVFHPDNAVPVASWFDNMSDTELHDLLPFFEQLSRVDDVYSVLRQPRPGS
The assay is described as follows: CTDSP1 inhibitors, concentration-response, biochemical, absorbance readout, ultra-high-throughput screen actives (AID 540297). The format is functional.

Structures are written as SMILES. Calls of active or inactive are those of the source.

Peroxisome proliferator-activated receptor gamma/Nuclear receptor coactivator 3, sequence (P37231 whole entry): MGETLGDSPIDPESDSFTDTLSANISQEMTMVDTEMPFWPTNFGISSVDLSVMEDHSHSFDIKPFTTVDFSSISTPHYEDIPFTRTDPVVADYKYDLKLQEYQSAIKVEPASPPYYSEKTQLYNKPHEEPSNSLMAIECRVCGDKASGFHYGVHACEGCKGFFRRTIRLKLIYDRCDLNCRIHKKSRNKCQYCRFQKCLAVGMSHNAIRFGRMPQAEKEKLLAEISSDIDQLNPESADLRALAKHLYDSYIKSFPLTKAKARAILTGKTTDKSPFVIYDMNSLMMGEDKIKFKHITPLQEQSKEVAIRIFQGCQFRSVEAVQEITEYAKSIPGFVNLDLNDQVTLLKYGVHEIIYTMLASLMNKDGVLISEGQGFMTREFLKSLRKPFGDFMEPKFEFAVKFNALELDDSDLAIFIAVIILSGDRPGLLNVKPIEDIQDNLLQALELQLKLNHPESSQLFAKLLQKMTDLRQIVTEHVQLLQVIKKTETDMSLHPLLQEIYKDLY
Peroxisome proliferator-activated receptor gamma/Nuclear receptor coactivator 3, sequence (Q9Y6Q9 whole entry, further chain): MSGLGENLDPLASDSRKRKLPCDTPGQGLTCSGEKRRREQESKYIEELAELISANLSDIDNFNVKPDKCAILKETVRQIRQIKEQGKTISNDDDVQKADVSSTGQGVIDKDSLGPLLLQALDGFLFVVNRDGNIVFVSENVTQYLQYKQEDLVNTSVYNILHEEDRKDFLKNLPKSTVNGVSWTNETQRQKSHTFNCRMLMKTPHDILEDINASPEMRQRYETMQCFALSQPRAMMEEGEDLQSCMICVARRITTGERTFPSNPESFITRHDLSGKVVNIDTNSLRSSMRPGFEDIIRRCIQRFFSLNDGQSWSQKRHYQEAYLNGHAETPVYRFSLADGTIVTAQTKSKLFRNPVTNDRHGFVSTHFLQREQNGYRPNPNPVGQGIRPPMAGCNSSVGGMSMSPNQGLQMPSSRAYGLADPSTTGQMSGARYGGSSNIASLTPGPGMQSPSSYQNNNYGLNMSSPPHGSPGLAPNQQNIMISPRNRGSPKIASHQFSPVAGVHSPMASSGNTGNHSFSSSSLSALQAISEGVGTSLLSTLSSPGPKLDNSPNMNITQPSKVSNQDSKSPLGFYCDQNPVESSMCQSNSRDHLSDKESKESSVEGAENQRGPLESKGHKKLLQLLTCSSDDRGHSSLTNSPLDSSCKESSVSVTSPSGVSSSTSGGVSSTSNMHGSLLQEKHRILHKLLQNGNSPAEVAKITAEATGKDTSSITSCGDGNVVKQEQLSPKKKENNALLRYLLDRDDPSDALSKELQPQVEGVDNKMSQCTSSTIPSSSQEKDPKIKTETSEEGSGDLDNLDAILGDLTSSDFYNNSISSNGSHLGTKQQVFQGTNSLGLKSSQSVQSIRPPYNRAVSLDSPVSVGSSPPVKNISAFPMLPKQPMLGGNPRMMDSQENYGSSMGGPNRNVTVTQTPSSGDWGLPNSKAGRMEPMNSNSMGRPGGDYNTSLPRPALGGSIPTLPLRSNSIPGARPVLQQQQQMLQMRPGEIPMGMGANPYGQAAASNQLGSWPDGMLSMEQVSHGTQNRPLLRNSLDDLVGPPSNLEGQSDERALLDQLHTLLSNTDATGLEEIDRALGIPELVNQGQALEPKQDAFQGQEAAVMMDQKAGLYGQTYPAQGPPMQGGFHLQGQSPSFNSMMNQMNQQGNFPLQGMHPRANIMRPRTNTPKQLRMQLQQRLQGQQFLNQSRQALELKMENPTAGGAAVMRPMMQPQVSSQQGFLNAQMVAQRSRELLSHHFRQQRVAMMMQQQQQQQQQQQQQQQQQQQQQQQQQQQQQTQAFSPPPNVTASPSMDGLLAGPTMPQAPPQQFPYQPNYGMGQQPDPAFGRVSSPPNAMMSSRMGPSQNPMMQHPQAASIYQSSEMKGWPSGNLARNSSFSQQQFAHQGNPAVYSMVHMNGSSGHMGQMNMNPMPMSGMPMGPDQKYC
Peroxisome proliferator-activated receptor gamma/Nuclear receptor coactivator 1, sequence (P37231 whole entry): as the sequence (P37231 whole entry) above
Peroxisome proliferator-activated receptor gamma/Nuclear receptor coactivator 1, sequence (Q15788 whole entry, further chain): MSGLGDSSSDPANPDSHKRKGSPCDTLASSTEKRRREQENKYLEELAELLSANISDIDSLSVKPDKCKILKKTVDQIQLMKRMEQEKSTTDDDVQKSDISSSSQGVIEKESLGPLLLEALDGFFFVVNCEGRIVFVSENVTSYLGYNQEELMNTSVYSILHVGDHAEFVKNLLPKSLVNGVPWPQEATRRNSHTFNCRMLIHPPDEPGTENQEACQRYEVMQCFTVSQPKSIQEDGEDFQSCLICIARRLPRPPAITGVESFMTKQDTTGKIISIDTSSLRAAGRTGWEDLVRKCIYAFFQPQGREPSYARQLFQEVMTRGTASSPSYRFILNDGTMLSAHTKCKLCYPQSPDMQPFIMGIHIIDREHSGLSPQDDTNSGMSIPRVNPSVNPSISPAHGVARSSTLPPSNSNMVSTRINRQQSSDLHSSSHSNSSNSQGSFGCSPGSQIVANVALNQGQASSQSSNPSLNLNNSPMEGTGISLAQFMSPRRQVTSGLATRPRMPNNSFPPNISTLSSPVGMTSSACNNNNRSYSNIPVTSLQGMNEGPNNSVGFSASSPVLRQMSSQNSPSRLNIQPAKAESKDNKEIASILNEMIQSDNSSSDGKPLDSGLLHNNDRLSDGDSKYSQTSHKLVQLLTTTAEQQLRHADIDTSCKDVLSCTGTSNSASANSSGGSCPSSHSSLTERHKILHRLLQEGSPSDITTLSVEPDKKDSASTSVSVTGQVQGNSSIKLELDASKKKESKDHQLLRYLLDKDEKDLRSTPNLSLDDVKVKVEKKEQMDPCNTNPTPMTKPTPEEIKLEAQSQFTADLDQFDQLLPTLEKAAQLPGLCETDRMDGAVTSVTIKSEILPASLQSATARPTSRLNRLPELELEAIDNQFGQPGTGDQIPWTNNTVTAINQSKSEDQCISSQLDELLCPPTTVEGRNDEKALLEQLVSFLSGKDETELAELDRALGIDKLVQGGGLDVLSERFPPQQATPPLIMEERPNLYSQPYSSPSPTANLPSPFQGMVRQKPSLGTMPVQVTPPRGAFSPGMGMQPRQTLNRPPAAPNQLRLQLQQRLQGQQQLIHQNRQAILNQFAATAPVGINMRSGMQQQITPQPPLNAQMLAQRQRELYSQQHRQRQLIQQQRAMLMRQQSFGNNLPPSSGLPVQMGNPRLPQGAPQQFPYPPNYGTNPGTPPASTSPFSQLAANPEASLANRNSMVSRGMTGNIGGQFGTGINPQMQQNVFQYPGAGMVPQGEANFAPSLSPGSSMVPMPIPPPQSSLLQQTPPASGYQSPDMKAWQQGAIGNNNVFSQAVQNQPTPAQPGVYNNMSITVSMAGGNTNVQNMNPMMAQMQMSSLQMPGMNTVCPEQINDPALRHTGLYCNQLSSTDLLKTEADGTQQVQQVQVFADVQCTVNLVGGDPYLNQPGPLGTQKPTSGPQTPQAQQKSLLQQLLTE
Genome polyprotein, sequence (P29990 2492-3391 limits assumed): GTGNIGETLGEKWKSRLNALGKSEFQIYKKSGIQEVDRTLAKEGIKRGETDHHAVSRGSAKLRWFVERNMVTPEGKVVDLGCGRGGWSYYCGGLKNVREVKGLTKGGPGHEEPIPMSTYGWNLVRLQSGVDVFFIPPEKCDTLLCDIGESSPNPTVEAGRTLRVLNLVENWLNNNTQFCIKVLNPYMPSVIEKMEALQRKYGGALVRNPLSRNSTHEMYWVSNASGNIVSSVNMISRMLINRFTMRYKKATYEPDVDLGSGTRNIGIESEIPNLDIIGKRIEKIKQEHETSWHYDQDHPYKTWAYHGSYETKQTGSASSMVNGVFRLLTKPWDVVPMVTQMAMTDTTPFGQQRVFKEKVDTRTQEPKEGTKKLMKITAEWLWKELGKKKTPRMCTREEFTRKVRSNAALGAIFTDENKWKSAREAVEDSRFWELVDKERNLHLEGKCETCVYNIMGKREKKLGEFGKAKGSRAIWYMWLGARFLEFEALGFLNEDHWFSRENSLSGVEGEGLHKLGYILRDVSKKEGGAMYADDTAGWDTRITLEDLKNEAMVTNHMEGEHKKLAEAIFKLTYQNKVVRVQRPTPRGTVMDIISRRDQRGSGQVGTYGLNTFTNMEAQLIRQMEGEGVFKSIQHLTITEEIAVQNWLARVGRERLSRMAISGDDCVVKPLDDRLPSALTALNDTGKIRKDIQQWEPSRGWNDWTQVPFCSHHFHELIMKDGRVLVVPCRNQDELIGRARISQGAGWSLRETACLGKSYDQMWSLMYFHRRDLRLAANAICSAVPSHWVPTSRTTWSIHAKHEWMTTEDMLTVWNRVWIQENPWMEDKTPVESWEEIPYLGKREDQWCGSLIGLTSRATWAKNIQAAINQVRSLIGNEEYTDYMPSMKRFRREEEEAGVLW

For the compound `O=C(COc1ccc(F)cc1)NNC(=O)c1cc2ccccc2oc1=O`, the IC50 (commonly the concentration that inhibits the measured activity by half) in assay [1] was > 29.9 µM (inactive). In addition, in assay [2], the EC50 (as a rule, the midpoint of the concentration-response curve) was > 29.9 µM (inactive).
`CC(=C1C(=O)c2ccccc2C1=O)N1CCc2ccccc2C1`: the IC50 in assay [1] is > 29.9 µM (inactive). Also, the EC50 in assay [2] is > 29.9 µM (inactive).
With `CCCCNS(=O)(=O)c1cc(-c2nn(C)c(=O)c3ccccc23)ccc1C`, in assay [3], the AC50 (in general, the midpoint of the concentration-response curve, whichever way the signal moves) is 21.3 µM (active).
With `Cc1ccc(CSc2nnc3c(n2)OC2(Nc4ccccc4-3)C(=O)Nc3ccc(F)cc32)cc1` (centres undefined), in assay [4], the IC50 is 25 µM (active).
Turning to `O=C(CSc1ccc(-c2ccccn2)nn1)c1ccc(F)cc1`, the IC50 in assay [5] is on record as > 50 µM (not active).
Consider `CC1CCN(S(=O)(=O)c2ccc3c4c2CC(=O)N4CC(C)S3)CC1` (centres undefined), for which the EC50 in [6] and in assay [7] was > 350 µM (not active) in each case. Also, the IC50 in [8] was 3.64 µM (active).
As to `O=C(Nc1ccccc1F)c1coc(=O)c(Br)c1`, the EC50 in [9] and in assay [10] was > 300 µM (not active) throughout. In addition, the AC50 in assay [3] is 23.8 µM (active).
For `COc1ccc(C(=O)C2=C(O)C(=O)N(c3cc(C)on3)C2c2ccccc2OC)cc1` (centres undefined), the EC50 is 22.9 µM (inactive) in assay [11], > 79.4 µM (not active) in [12] and 18.2 µM (not active) in [13].
For the compound `N=C1/C(=C/c2ccc(Br)o2)C(=O)N=C2SC(CC(=O)N3CCCC3)=NN12`, the IC50 is 58.3 µM (active) in [14] and > 80 µM (inactive) in [15].
Turning to `Cn1c(S)nnc1-c1sc2cc(C(F)(F)F)cnc2c1-c1ccccc1`, the EC50 is 3.6 µM (active) in assay [11], 16.3 µM (not active) in [12] and 5.17 µM (active) in assay [13].
As for `O=C(Cn1cnc2c(nnn2-c2cccc(Cl)c2)c1=O)NCc1ccccc1`, in [15], the IC50 is 8.16 µM (active).
As for `C[C@H](O)[C@@H]1C(=O)N2CCc3c([nH]c4ccccc34)[C@@H]2C[C@@H]1N(C)C(=O)Nc1cccc2ccccc12`, the AC50 in assay [3] was 35.9 µM (active).
For `C/C(=N\Nc1ccc(Cl)c(C(=O)O)c1)c1ccc[nH]1`, the EC50 is reported as > 300 µM (not active) in assay [9] and > 150 µM (not active) in [10]. Moreover, the IC50 in assay [15] was 4.28 µM (active).
Consider `O=C(CSc1nc2sc3c(c2c(=O)n1-c1ccccc1)CCCC3)N/N=C/c1ccc(C(=O)O)cc1`, for which, in [15], the IC50 was 25.9 µM (active).
For `Oc1ccc(/C=N/CC2COc3ccccc3O2)cc1` (centres undefined), the IC50 in [1] is > 29.9 µM (inactive). For the same compound, the EC50 in [2] is > 29.9 µM (inactive).
